In ChEMBL document CHEMBL1157742, “Oxepinochromenones, furochromenone, and their putative precursors from the endolichenic fungus Coniochaeta sp” (J Nat Prod, 2010):

How the values were obtained:
Format in all cases: functional, cell-based
[1] = test system: MDA-MB-231; assay: Cytotoxicity against human MDA-MB-231 cells after 48 hrs by MTT assay; settings: MDA-MB-231, 48 h
[2] = test system: A549; assay: Cytotoxicity against human A549 cells after 48 hrs by MTT assay; settings: A549, 48 h
[3] = test system: HeLa; assay: Cytotoxicity against human HeLa cells after 48 hrs by MTT assay
[4] = test system: HepG2; assay: Cytotoxicity against human HepG2 cells after 48 hrs by MTT assay; settings: HepG2, 48 h

| Compound | IC50 [1] [µM] | IC50 [2] [µM] | IC50 [3] [µM] | IC50 [4] [µM] |
| --- | --- | --- | --- | --- |
| COC(=O)[C@@]1(O)c2c(oc3cc(C)cc(O)c3c2=O)O[C@@H]1CCO [CONIOFUROL A] | > 120 | > 120 | > 120 | > 120 |
| COC(=O)[C@@H]1c2c(oc3cc(C)cc(O)c3c2=O)OC=C[C@@H]1O [CONIOXEPINOL A] | > 120 | > 120 | 104 | > 120 |
| COC(=O)[C@@H]1c2c(oc3cc(CO)cc(O)c3c2=O)OC=C[C@@H]1O [CONIOXEPINOL B] | > 120 | > 120 | 36.2 | > 120 |
| COC(=O)[C@@]1(O)c2c(oc3cc(C)cc(O)c3c2=O)OC=C[C@@H]1O [CONIOXEPINOL C] | 112 | 83.6 | > 120 | > 120 |
| COC(=O)[C@]12Oc3cc(C)cc(O)c3C(=O)C1=C(O)OC=C[C@H]2O [CONIOXEPINOL D] | 41.4 | 40.9 | > 120 | > 120 |
| O=c1[nH]cc(F)c(=O)[nH]1 [FLUOROURACIL] | – | – | 10 | – |
